Experiments:
physchem = format: physicochemical
Excerpt: Dosage formulations used in the disclosed methods comprise a therapeutically effective amount of ANAVEX2-73, the crystalline HCI salt of tetrahydro-N,N-dimethyl-2,2-diphenyl-3-furanmethanamine, or tetrahydro-N,N-dimethyl-2,2-diphenyl-3-furanmethanamine hydrochloride (IUPAC name: 1-(2,2-diphenyloxolan-3-yl)-A/,A/-dimethylmethanamine hydrochloride). […] Thus ANAVEX2-73 (used herein to refer to the HCI salt or the free base) is highly amenable to incorporation in the dosage formulations disclosed herein. For example, ANAVEX2-73 as either the HCI salt or the free base has a relatively low molecular weight (<400 Da), and is thus well suited for transmucosal or transdermal delivery, or rapid oral delivery. ANAVEX2-73 has a pKa around 8-9, which also makes it well-suited for transmucosal delivery. Therapeutically effective doses of ANAVEX2-73 are well suited for various thin film formulations, including oral and transdermal thin film formulations.

[1] = system: subject diagnosed with Rett Syndrome; assay: Example 1: liquid formulation given to a subject with Rett Syndrome; format: in vivo, human; details: 5 mL of a liquid formulation (0.2 mg/mL)
Method: A subject diagnosed with Rett Syndrome was administered 5 mL of a liquid formulation (0.2 mg/mL).

[2] = system: female subjects diagnosed with Rett Syndrome; assay: Example 5: 7-week daily treatment of Rett Syndrome subjects (RSBQ, CGI-I); format: in vivo, human
Method: Six female subjects ranging from 16 to 22 years of age diagnosed with Rett Syndrome were administered 5 mg ANAVEX2-73 liquid formulation (1 m_of a 5 mg/mI_ANAVEX2-73 solution) daily for a total daily dose of […], over a period of 7 weeks.
(§1) For efficacy, the following parameters were measured in the female subjects: Rett Syndrome Behavior Questionare (RSBQ), Clinical Global Impressions (CGI-I), hand behaviors (RSBQ), breathing problems (RSBQ), waking during sleep (RSBQ), and glutamate biomarker, and GABA biomarkers.
Evaluation of the efficacy was measured as a comparison from baseline (week 0), week 4, and to end of treatment (week 7). Blood plasma samples were analyzed at week 0 and at week 7 to measure the levels of glutamate and GABA biomarkers. The evaluation of efficacy used a two-tailed statistical analysis.

[3] = system: glutamate biomarker in plasma; assay: Example 5: glutamate biomarker in plasma of Rett Syndrome subjects; format: in vivo, human; details: week 0 vs week 7; Wilcoxon p (2-tailed)=0.046
Excerpt: In one aspect, the method further comprises measuring, or having measured or obtained a baseline biomarker level in the subject prior to treatment with ANAVEX2-73 as described herein, wherein the biomarker comprises plasma glutamate, gamma aminobutyric acid (GABA), PI3K, pAkt, mTOR, pMAPK, pERK, or any combinations thereof, and measuring or having measured or obtained at least a second level of the biomarker following a period of treatment with ANAVEX2-73 as described herein. […]
as §1
Evaluation of the efficacy was measured as a comparison from baseline (week 0), week 4, and to end of treatment (week 7). Blood plasma samples were analyzed at week 0 and at week 7 to measure the levels of glutamate and GABA biomarkers. […]

[4] = system: subject diagnosed with Rett Syndrome; assay: Example 6: liquid formulation given to a subject with Rett Syndrome; format: in vivo, human; details: 1 mL of a liquid formulation (0.2 mg/mL)
Method: A subject, diagnosed with Rett Syndrome is administered 1 mL of a liquid formulation (0.2 mg/mL).

pAkt = pAkt levels in peripheral lymphocytes of Fmr1 KO2 mice (flow cytometry); format: in vivo
Method: (§2) In the aforementioned study by Reyes et al., ANAVEX2-73 or saline were administered twice daily at a dose of 1 mg/kg IP, to 2-month-old Fmr1 KO2 mice and wild type counterparts (N=10 mice per group, 40 mice total; for blood sample analyses: 5-7 mice per group) for two weeks. Brain samples were harvested for biochemical and molecular studies, blood samples were collected at baseline and on the last day of the behavioral assessments. Complementary cell signaling analyses were also conducted. These analyses were important because of their relevance to both preclinical and clinical research in FXS. Peripheral lymphocytes were isolated and stimulated with Phorbol-12-Myristate-13-Acetate in a buffer without phosphatase inhibitors but with U0126 (inhibitor of MAPK kinase). […] Resuspended cells were analyzed in a Coulter XL3 flow cytometer. […] Levels of pAkt and pERK were first characterized in terms of distribution, by the Shapiro-Wilk test of normality and Levene's and Bartlett's tests, which determined that all data were distributed normally and had equal variances. […] Once a significant difference was found, a two-way univariate ANOVA with genotype and treatment as between-subject factors, followed by a Tukey's post-hoc test, evaluated the differences between drug-treated and vehicle-treated WT and Fmr1 KO2 mice. […]

pERK = pERK levels in peripheral lymphocytes of Fmr1 KO2 mice (flow cytometry); format: in vivo; details: 1 mg/kg IP twice daily for two weeks, 7 per group, t-test p=0.046, post-hoc p=0.096
Method: as §2

[5] = system: Fmr1 knockout 2 mice, KO2; details: 1 mg/kg IP twice daily for two weeks; cited from earlier work
BDNF = details: 1 mg/kg IP twice daily for two weeks; cited from earlier work
healthy male volunteers = details: cited from earlier work

## CN(C)CC1CCOC1(c1ccccc1)c1ccccc1.Cl (stereo not drawn) [ANAVEX2-73, tetrahydro-N,N-dimethyl-2,2-diphenyl-3-furanmethanamine hydrochloride]
physchem
  chemical stability: excellent
  pKa: 8 to 9
  solubility in organic solvents: soluble in almost all organic solvents
  water solubility: high
[1]
  cognition: improvement
  motor skills: improvement
[2]; after 7 weeks, p=0.003
  RSBQ and CGI-I: reduction
[2]; all six subjects, 5 mg liquid formulation daily, week 0 vs week 7
  improvement in the RSBQ (total score): over 30%
[2]; compared to week 0, p=0.042
  breathing problems (RSBQ): improvement
  hand behaviors (RSBQ): improvement
  waking during sleep (RSBQ): improvement
[3]
  levels of glutamate biomarker in plasma: decreased significantly
[4]
  CGI-I index: improvement
  Rett Syndrome Behavior Questionnaire (RSBQ): improvement
pAkt; 1 mg/kg IP twice daily for two weeks, 5 animals per group, p=0.01
  pAkt levels, drug-treated vs vehicle-treated Fmr1 KO2 mice: significantly lower
pAkt; ANOVA
  pAkt levels, drug-treated mutant mice vs vehicle-treated WT mice: comparable
pERK
  pERK levels, drug-treated vs vehicle-treated Fmr1 KO2 mice: mildly reduced
[5]
  three neurobehavioral phenotypes (open field test, contextual fear conditioning, marble-burying): marked improvement or normalization
BDNF
  BDNF levels in the hippocampus: normalized
Healthy male volunteers; ascending single oral doses of 1, 10, 30, 40, 50 and 55 mg, healthy subjects
  safety and tolerability: safe and well tolerated
Healthy male volunteers; at highest doses
  observed adverse events: only moderate and reversible dizziness and headache
Healthy male volunteers; human, in vivo, po
  minimum intolerable dose (MID): 60 mg
Healthy male volunteers; single ascending oral doses
  serious adverse events: No serious adverse events occurred
Healthy male volunteers; single oral dose, based on frequency and intensity of adverse events
  maximum tolerable dose (MTD): 55 mg

Reference: patent US12558340B2, “ANAVEX2-73 for the treatment of genetic neurodevelopmental disorders” (ANAVEX LIFE SCIENCES CORP., priority 2019, dated 2026)
